Experimental data: PMC4264453 (British Journal of Cancer, 2014)
Counter-ions that a name gives are not always drawn.

Columns and labels:
[1] = no reference given; cited from earlier work
[2] = tested on: patients with advanced solid tumours; settings: 4 mg m^−2 cohort; ref Tan et al, 2009; cited from earlier work
[3] = tested on: patients with advanced solid tumours; format: in vivo, human; settings: days 1, 8 with cisplatin 75 mg m^−2 day 1, 21-day cycle
patients = settings: ref Synold et al, 2005, cited from earlier work
[4] = tested on: patients with advanced solid malignancies; settings: ref Goel et al, 2009; cited from earlier work
[5] = Eribulin plasma pharmacokinetics; format: in vivo, human; settings: for AUC(0-inf) / clearance / Cmax / half-life / Vd: human, plasma, intravenous; for AUC(0-inf): AUC0-inf; for clearance: CL; for Vd: Vss
[6] = 60 mg, Dose level 3: eribulin mesylate 1.2 with cisplatin 60 mg m^−2, first dose, N=4, mean (s.d.)
[7] = 60 mg, Dose level 5: eribulin mesylate 1.4 with cisplatin 60 mg m^−2, first dose, N=6, mean (s.d.)
[8] = 75 mg, Dose level 6: eribulin mesylate 1.2 with cisplatin 75 mg m^−2, first dose, N=3, mean (s.d.)

C=C1C[C@@H]2CC[C@@]34C[C@H]5O[C@H]6[C@@H](O3)[C@H]3O[C@H](CC[C@@H]3O[C@H]6[C@H]5O4)CC(=O)C[C@@H]3[C@@H](OC)[C@@H](C[C@H](O)CN)O[C@H]3C[C@H]3O[C@@H](CC[C@@H]1O2)C[C@@H](C)C3=C [Eribulin mesylate]
administered dose recovered in urine [1]: < 8%
patients experiencing febrile neutropenia (dominant DLT) [2]: all three patients
MTD and recommended phase II dose of eribulin mesylate in combination with cisplatin [3]: 1.2 mg m^−2
minor responses (patients; lung, breast, and thyroid): three
median duration of stable disease (patients; range 2–14 months): 4 months
patients exhibiting stable disease as the best response (patients): 12 patients
dose at which grade 3 toxicity first occurred (patients; single agent): 0.5 mg m^−2
principal DLT [4]: neutropenia
effect of cisplatin co-administration on the disposition of eribulin mesylate ([5]; compared to previously reported single agent data (Goel et al, 2009; Tan et al, 2009)): no apparent effect
dose proportionality of mean Cmax and AUC0-inf ([5]; eribulin 1.2–1.4 mg m^−2 with cisplatin): did not increase in a dose-proportional manner
AUC(0-inf) [5, 6]: 1.5 µg·h/mL
AUC(0-inf) [5, 7]: 1.1 µg·h/mL
clearance [5, 6]: 26.7 mL/min
clearance [5, 7]: 38.3 mL/min
Cmax [5, 6]: 0.466 µg/mL
Cmax [5, 7]: 0.508 µg/mL
half-life ([5]; 60 mg, T1/2, Dose level 3: eribulin mesylate 1.2 with cisplatin 60 mg m^−2, first dose, N=4, mean (s.d.)): 40.8 h
half-life ([5]; 60 mg, T1/2, Dose level 5: eribulin mesylate 1.4 with cisplatin 60 mg m^−2, first dose, N=6, mean (s.d.)): 36.5 h
Vd [5, 6]: 51.4 L
Vd [5, 7]: 77.7 L
AUC(0-inf) [5, 8]: 1.03 µg·h/mL
clearance [5, 8]: 36.7 mL/min
Cmax [5, 8]: 0.695 µg/mL
half-life ([5]; 75 mg, T1/2, Dose level 6: eribulin mesylate 1.2 with cisplatin 75 mg m^−2, first dose, N=3, mean (s.d.)): 35.5 h
Vd [5, 8]: 68.4 L
